The record followed here is paper PMC9848256 (Journal of Enzyme Inhibition and Medicinal Chemistry, 2023).

A short description of this data set: in vivo. The settings on record: male, SD, rat, iv, 1 mg/kg.

Structures are written as SMILES.

Procedure: The preliminary pharmacokinetic study was conducted in male SD rats. Two groups with three mice each were set by random. […] The liquid chromatography tandem mass spectrometry (LC-MS/MS) method was pre-built. The system consisted of LC-20AD High Performance Liquid Chromatography (Shimazu, Japan) with Venusil C18 Plus column (2.1*50 mm, 5.0 μm, Agela, USA) and API 4000 mass spectrometry (AB, USA). […] In the LC method, mobile phase A was distilled water and mobile phase B was acetonitrile. The rinse port wash solution was methanol. The flow rate was 0.700 ml/min and the initial back pressure was 8.9 Mpa. […] The subsequent calculation was under a non-compartmental model statistical moment method with WinNonlin 7.0 software (USA).
Two modes of administration were applied. One was the intragastric injection (i.g., or “PO” for “per os”) at a dosage (D) of 3.0 mg/kg, while the other was the intravenous injection (i.v., or “IV”) at a dosage of 1.0 mg/kg.

Consider `CCCCS(=O)(=O)Oc1ccc(/C=C/C(=O)Nc2cccc(Br)c2)cc1` [Spartinin C10, (E)-4–(3-((3-bromophenyl)amino)-3-oxoprop-1-en-1-yl)phenylbutane-1-sulphonate], for which the AUC(0-inf) turned out to be 184 ± 74.4 ng·h/mL, the AUC(0-t) came out at 159 ± 65 ng·h/mL, the Cmax is 284 ± 270 ng/mL and the Tmax was 5 min. The half-life was 32.3 ± 13.7 min.

The AUC(0-inf) is the area under the concentration-time curve extrapolated to infinity. A higher AUC(0-inf) goes with more exposure. For orientation: AUC(0-t) means exposure summed from dosing to a finite time, without extrapolation to infinity. As a reminder, the Cmax is the highest concentration seen after dosing. Broadly, the Tmax is the time at which the peak concentration occurs. What is called half-life is the time in which the quantity being followed falls by half. A high value points to slow loss.
